From US20030228357A1, “Dry granulated formulations of azithromycin” (Pfizer Inc., priority 2002, published 2003)

Legend:
Format in all cases: physicochemical
[1] = Indices of tableting performance (Hiestand) of bulk azithromycin; conditions: forms N, M, G, A milled, F and J unmilled
Description: Indices of tableting performance, for several azithromycin forms, were assessed to identify any mechanical deficiencies or attributes that may affect tablet formulation for these azithromycin forms. This assessment was performed in accordance with the procedures described in “Indices of Tableting, Performance” […] and D. P. Smith, Powder Technology 38 [1984] pp. 145-159. Specifically, the Brittle Fracture Index, BFI, was calculated from the ratio of a material's regular tensile strength to its compromised tensile strength. Strain Index, SI, was determined from the dynamic indentation hardness test. Worst Case Bonding Index was determined by assessing the extent of particle bonding remaining after decompression assuming a very short compression dwell time and a plastic mechanism of particle separation during decompression. Tableting Indices were determined for bulk azithromycin lots of six different crystalline forms, specifically forms N, M, G, A, F and J. Forms N, M and G were milled with a Fitzmill (Model JT, The Fitzpatrick Co., Elmhurst, Ill.) using a 0.027'' screen and knives at high speed in an attempt to match the smaller particle size of milled Form A. Unmilled forms F and J were evaluated “as is” due to their relatively small particle sizes.

[2] = Density and Carr's Compressibility Index (flowability) of dry blends and dry granulations
Excerpt: Carr's Compressibility Index was used to evaluate the flowability of the four dry granulations. Carr's Compressibility Index is a simple test to evaluate flowability by comparing both the initial and final (tapped) bulk volumes and the rate of packing down. A useful empirical guide to flow is given by Carr's compressibility index: Compressibility Index(%)=[(tapped density−initial density)/tapped density]×100 […] The procedure is described in Int. J. Pharm. Tech. & Prod. Mfr., 6(3) 10-16, 1985.

[3] = Slug (compact) hardness, Schleuniger hardness tablet tester
Excerpt: A compaction simulator was used to compress the blends. The compaction simulator was designed as a single station tablet press in which the compression dwell time can be adjusted to simulate different types of tablet presses. All the formulations were slugged on the compaction simulator configured as the Kilian RX-67 press with a dwell time of 0.3145 seconds using […] round flat face tooling. The slugs were then comminuted using a Fitz mill with a 0.125″ screen with knives forward and run at slow speed. […] The slugs were tested for hardness (kP scale), using a Schleuniger hardness tablet tester (Dr. Schleuniger Pharmatron AG, Solothurn, Switzerland).

[4] = Tablet hardness, Schleuniger hardness tablet tester; conditions: DCP anhydrous
Description: (§1) All four formulations were compressed on the compaction simulator using either 0.344″×0.688″ oval tooling, or ½″ standard round concave (SRC) tooling. The tablets were tested for hardness (kP scale), using a Schleuniger hardness tablet tester (Dr. Schleuniger Pharmatron AG, Solothurn, Switzerland), and for friability (100 rotations/4 minutes) using a Vanderkamp Friabulator Tablet Tester (Vankel, Cary, N.C., US).

[5] = Tablet friability, Vanderkamp Friabulator (100 rotations/4 minutes); conditions: DCP anhydrous
Description: Friability is a standard test known to one skilled in the art. Friability is measured under standardized conditions by weighing out a certain number of tablets (generally 20 tablets or less), placing them in a rotating Plexiglas drum in which they are lifted during replicate revolutions by a radial lever, and then dropped approximately 8 inches. After replicate revolutions (typically 100 revolutions at 25 rpm), the tablets are reweighed and the percentage of formulation abraded or chipped is calculated. The friability of the tablets, of the present invention, is preferably in the range of about 0% to 3%, and values about 1%, or less, are considered acceptable for most drug and food tablet contexts. Friability which approaches 0% is particularly preferred.
as §1

[6] = Tablet disintegration time, Automatic Disintegration Tester; conditions: Table 2A; Long blend; Oval tooling; distilled water at 37° C.
Description: The disintegration time was determined in distilled water at 37° C. using an Automatic Disintegration Tester (Model ZT72, Erweka USA Inc, Milford, Conn.) for the long blend tablets. Even with extensive blending times with magnesium stearate, reasonably short disintegration times of 15 and 20 seconds were obtained.

[7] = Tablet hardness, Schleuniger hardness tablet tester; conditions: Table 4D; high drug loading; diluent DCP, dihyd.; modified capsule shape
[8] = Tablet friability, Vanderkamp Friabulator (100 rotations/4 minutes); conditions: Table 4D; high drug loading; diluent DCP, dihyd.; modified capsule shape
[9] = 35.2 wt % azithromycin, dicalcium phosphate anhydrous diluent, Long blend method
[10] = 35.2 wt % azithromycin, dicalcium phosphate anhydrous diluent, Long blend method, slugged
[11] = Table 3A, low drug loading: 35.2 wt % azithromycin, 54.8 wt % dicalcium phosphate anhydrous, long blend
[12] = Table 4B, high drug loading (58.2 wt % azithromycin), diluent DCP, dihyd.
[13] = Table 3C, low drug loading (35.2 wt % azithromycin), oval tablets, target weight 750 mg

CCC1OC(=O)C(C)C(O[C@H]2C[C@@](C)(OC)[C@@H](O)C(C)O2)C(C)[C@@H](OC2OC(C)CC(N(C)C)[C@H]2O)[C@@](C)(O)C[C@@H](C)CN(C)[C@H](C)[C@@H](O)[C@]1(C)O (some centres unmarked) [Form F, azithromycin monohydrate hemi-ethanol solvate]
Brittle Fracture Index (BFI) [1]: 0.37 | Strain Index (SI) [1]: 0.0041 | Tensile Strength [1]: 1.62 Mpa | Worst Case Bonding Index (BIw) × 10^2 [1]: 0.9 | Dry Blend Carr's Index [2, 9]: 43% | Dry Blend density As Is [2, 9]: 0.50 g/cc | Dry Blend density Tapped [2, 9]: 0.88 g/cc | Granulation Carr's Index [2, 10]: 22% | Granulation Density As Is [2, 10]: 0.84 g/cc | Granulation Density Tapped [2, 10]: 1.07 g/cc | Granulation Carr's Index [2, 11]: 22% | Granulation Density As Is [2, 11]: 0.84 g/cc | Granulation Density Tapped [2, 11]: 1.08 g/cc | Dry Granulation Carr's Index [2, 12]: 27% | Dry Granulation Density As Is [2, 12]: 0.63 g/cc | Dry Granulation Density Tapped [2, 12]: 0.86 g/cc | Avg Slug Hardness [3, 9]: 22.4 kP | Avg Slug Hardness [3, 11]: 22 kP | Avg Slug Hardness [3, 12]: 9 kP | Avg Tablet Hardness ([4]; Table 2A, 35.2 wt % azithromycin, Long blend, Oval tooling, compression force 13.5 kN (A), 19 kN (F)): 10.3 kP | Avg Hardness [4, 13]: 10.3 kP | Friability ([5]; Table 2A, 35.2 wt % azithromycin, Long blend, Oval tooling): 0.48% | Friability [5, 13]: 0.48% | Mean disintegration Time [6]: 20 s | Avg Tablet Hardness [7]: 7.0 kP | Friability [8]: 0.31%
